According to BindingDB's records for doi:10.1111/j.1747-0285.2010.01036.x (Ataturk University, 2010):

Biological target: Serum paraoxonase/arylesterase 1 (Homo sapiens, UniProt P27169)
Assay: In Vitro Inhibtion Assay
Procedure: The inhibitory effects of six sulfonamide derivatives was examined against the purified enzyme hPON1 and were tested in a triplicate experiment in five different concentrations (0.15, 0.3, 0.45, 0.6, and 0.75 mM).

Serum paraoxonase/arylesterase 1, sequence (P27169 whole entry): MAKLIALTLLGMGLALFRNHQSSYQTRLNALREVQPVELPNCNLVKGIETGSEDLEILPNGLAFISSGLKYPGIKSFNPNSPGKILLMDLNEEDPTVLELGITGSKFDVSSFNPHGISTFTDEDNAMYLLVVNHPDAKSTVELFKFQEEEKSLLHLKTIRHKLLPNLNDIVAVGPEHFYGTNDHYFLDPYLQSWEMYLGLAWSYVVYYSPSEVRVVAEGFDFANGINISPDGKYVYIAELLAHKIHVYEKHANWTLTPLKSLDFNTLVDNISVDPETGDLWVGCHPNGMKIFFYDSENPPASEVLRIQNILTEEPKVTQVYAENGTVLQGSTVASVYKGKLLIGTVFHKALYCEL

Row | IC50 | Ki | Structure (SMILES)
1 | 1240 µM | 2010 µM | Nc1nnc(S(N)(=O)=O)s1 [1,3,4-thiadiazole-2-sulfonamide 15]
2 | 800 µM | 743 µM | CC(=O)Nc1nnc(S(N)(=O)=O)s1 [Acetazolamide, AAZ]
3 | 190 µM | 340 µM | NCc1ccc(S(N)(=O)=O)cc1 [aromatic sulfonamide compound 6]
4 | 360 µM | 702 µM | NS(=O)(=O)c1cc(C(=O)O)c(NCc2ccco2)cc1Cl [4-chloro-2-[(furan-2-ylmethyl)amino]-5-sulfamoylbenzoic acid]
5 | 180 µM | 86 µM | CC(=O)NS(=O)(=O)c1ccc(N)cc1 [Cetamide]
